Results from paper PMC10722324 (Heliyon, 2023).

Assays:
BuChE = BuChE (Homo sapiens, UniProt P06276); test: biochemical
Aβ1–42 = Aβ1–42 (Homo sapiens, UniProt P05067); test: biochemical; conditions: Aβ aggregation (IC50), Aβ1-42, ThT, 37 °C 48 h, compounds 0–200 μM
[1] = system: differentiated SH-SY5Y cells; test: Toxicity screening on differentiated SH-SY5Y cells; format: cell-based, human; conditions: MTT, mean ± SD (n = 5)

Chain of Aβ1–42 (P05067 672-713): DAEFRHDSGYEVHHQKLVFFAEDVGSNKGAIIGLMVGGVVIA
Chain of BuChE (P06276 29-602): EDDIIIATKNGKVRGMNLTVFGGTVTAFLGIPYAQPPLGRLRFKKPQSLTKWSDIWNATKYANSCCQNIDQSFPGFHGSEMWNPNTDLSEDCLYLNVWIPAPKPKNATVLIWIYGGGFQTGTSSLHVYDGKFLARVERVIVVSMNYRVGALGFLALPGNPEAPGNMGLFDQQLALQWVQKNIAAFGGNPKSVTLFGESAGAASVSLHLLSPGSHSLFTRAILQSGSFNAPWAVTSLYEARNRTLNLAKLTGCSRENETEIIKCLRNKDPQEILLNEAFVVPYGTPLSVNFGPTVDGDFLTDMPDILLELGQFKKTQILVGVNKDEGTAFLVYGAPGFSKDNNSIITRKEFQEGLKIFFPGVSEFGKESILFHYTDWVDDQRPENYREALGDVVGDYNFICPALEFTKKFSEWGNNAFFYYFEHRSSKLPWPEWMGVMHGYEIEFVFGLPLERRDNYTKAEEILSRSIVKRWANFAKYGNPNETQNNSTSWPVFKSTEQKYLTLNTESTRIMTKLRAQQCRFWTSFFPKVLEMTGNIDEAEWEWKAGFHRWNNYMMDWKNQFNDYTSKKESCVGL

SMILES | IC50 (BuChE) [µM] | IC50 (Aβ1–42) [µM] | Cell viability ([1]; 0.1 μM) [% control] | Cell viability ([1]; 1 μM) [% control] | Cell viability ([1]; 10 μM) [% control] | Cell viability ([1]; 100 μM) [% control]
COc1c2ccoc2cc2oc(-c3ccccc3)cc(=O)c12 [CY2, pinnatin] | 82 ± 1.3 | 195 ± 3.2 | 96.7 ± 3.1 | 99.3 ± 4.7 | 96.1 ± 4.3 | 68.5 ± 2.2
COc1c(C(=O)/C=C(\O)c2ccccc2)ccc2occc12 [CY3, pongamol] | 102 ± 1.27 | > 200 | 103.3 ± 1.4 | 103.6 ± 1.1 | 104.3 ± 3.8 | 103.1 ± 4.0
O=c1cc(-c2ccccc2)oc2c1ccc1occc12 [CY14, lanceolatin B] |  | 106 | 102.4 ± 1.3 | 100.1 ± 2.6 | 97.4 ± 3.2 | 72.4 ± 3.4
COc1cc(/C=C/C(=O)CC(=O)/C=C/c2ccc(O)c(OC)c2)ccc1O [Curcumin, reference compound] |  |  | 104.1 ± 3.2 | 100.4 ± 4.6 | 100.5 ± 7.7 | 79.1 ± 3.6
